Measurements from publication PMC6151435, “Bioactivity In Vitro of Quercetin Glycoside Obtained in Beauveria bassiana Culture and Its Interaction with Liposome Membranes” (Molecules : A Journal of Synthetic Chemistry and Natural …, 2017).

Tests used:
[1] = 1H-NMR study of interaction with DPPC liposomes (PrCl3 shift reagent); details: 0.24 mM compound
Method: The ^1H-NMR method of investigating the Q 7-MeGlu and Q interaction with liposomes was described earlier by Gabrielska et al. with minor modifications. Mixtures of phospholipids (DPPC) with studied compounds were co-dissolved in a chloroform/methanol mixture (55:1 v/v) at the respective concentrations. The lipid concentration in the sample was 36 mM and that of Q 7-MeGlu and Q was 0.24 mM […]. The samples were first evaporated under a stream of nitrogen and then in a vacuum (overnight). Then the samples were hydrated with D2O and vigorously shaken (15 min) at temperature above the main phase transition of lipid (41 °C) until optical homogeneity of the mixture was reached. Next, the lipid suspension was sonicated with a 20 kHz sonicator (20 kHz, Sonic, Italy) to yield a homogeneous lipid dispersion. Briefly, before the measurements a 4 mM praseodymium trichloride (PrCl3 × 6H2O) in heavy water solution […] was added to the sample of 0.6 mL liposome suspension. ^1H-NMR parameters were as follows: spectral window 12.019 Hz, digital resolution 0.183 Hz, acquisition and delay times 2.73 s and 1.00 s, respectively, and acquisition temperature 325 K. The experiment was performed in two replicates.

COX-1 = target: T1, COX-1 (Ovis aries, UniProt P05979); assay: Inhibition of cyclooxygenase 1 (spectrophotometric, TMPD); type: biochemical, sheep; details: Tris-HCl pH 8.0, room temperature
T1 construct: purchased Sigma-Aldrich
T1 sequence (P05979 25-600): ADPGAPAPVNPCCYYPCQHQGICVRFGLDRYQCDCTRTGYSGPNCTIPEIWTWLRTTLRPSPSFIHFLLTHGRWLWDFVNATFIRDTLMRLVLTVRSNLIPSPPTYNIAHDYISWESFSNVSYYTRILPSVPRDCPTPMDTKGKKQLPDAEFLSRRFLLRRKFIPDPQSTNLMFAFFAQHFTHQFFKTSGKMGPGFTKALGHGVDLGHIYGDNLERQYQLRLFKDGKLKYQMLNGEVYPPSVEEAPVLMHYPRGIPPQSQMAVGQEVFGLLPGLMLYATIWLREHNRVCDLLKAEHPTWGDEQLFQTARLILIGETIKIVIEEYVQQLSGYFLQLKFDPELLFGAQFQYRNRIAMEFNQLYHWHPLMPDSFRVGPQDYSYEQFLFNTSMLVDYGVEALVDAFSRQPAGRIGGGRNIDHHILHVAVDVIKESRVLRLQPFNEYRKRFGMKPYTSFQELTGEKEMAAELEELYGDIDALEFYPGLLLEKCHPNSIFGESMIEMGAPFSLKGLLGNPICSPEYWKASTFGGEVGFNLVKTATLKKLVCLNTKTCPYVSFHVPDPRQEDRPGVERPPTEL
Description: The probes 1,6-diphenyl-1,3,5-hexatriene (DPH), 3-[p-(6-phenyl)-1,3,5-hexatrienyl]propionic acid (DPH-PA), Merocyanine 540 (MC540), and N,N,N-trimethyl-4-(6-phenyl-1,3,5-hexatrien-1-yl)phenylammonium p-toluenesulfonate (TMA-DPH) were purchased from Molecular Probes (Eugene, OR, USA). Tris (hydroxymethyl) aminomethane (Tris:HCl) were obtained from “Chempur” (Piekary Śląskie, Poland). Quercetin (Q) was purchased from Sigma-Aldrich. Yellow powder, ^1H-NMR (DMSO-d6) δH: 6.19 (1H, d, J = 2.1 Hz, H-6), 6.41 (1H, d, J = 2.1 Hz, H-8), 6.89 (1H, d, J = 8.5 Hz, H-5′), 7.54 (1H, dd, J = 8.5, 2.2 Hz, H-6′), 7.68 (1H, d, J = 2.2 Hz, H-2′). ^13C-NMR (DMSO-d6) δC: 93.2 (C-8), 98.0 (C-6), 102.9 (C-10), 114.9 (C-2′), 115.4 (C-5′), 119.8 (C-6′), 121.8 (C-1′), 135.6 (C-3), 144.9 (C-3′), 146.6 (C-2), 147.5 (C-4′), 156.0 (C-9), 160.6 (C-5), 163.7 (C-7), 175.7 (C=O).
This experiment, established on the basis of a modified method given in the work by Jang and Pezzuto [68], was conducted by a spectrophotometric measurement of inhibition of the cyclooxygenases’ activity COX-1 and COX-2. […] The concentrations of studied compounds fluctuated in the range 20–100 µM for Q 7-MeGlu and 5–50 µM for Q. Absorbance of the sample was followed for 3 min by measuring it at 1 min intervals, using a spectrophotometer at a wavelength of 611 nm (Cary 100 Bio, Varian) in relation to a reference sample. […]

Compound	decrease (Δδ) in the splitting parameter of polar head groups resonance [1]	decrease of the Iout/Iin ratio vs pure DPPC [1]	increase in the half width of the membrane surface signal vs pure DPPC [1]	IC50 (COX-1)	decrease in full width at half height (ν) of band of terminal methyl group [1]	increase of the Iout/Iin ratio vs pure DPPC [1]
CO[C@H]1[C@H](O)[C@@H](O)[C@H](Oc2cc(O)c3c(=O)c(O)c(-c4ccc(O)c(O)c4)oc3c2)O[C@@H]1CO [Q 7-MeGlu, quercetin 7-O-β-D-(4″-O-methyl)glucopyranoside]	56%	13%	~142%	45.1 ± 2.51 µM	–	–
O=c1c(O)c(-c2ccc(O)c(O)c2)oc2cc(O)cc(O)c12 [Quercetin, 3,3′,4′,5,7-pentahydroxyflavone]	32%	–	approximately 119%	15.7 ± 1.73 µM	4%	33%
